Experimental data: PMC5271370, “A High-Content Assay Enables the Automated Screening and Identification of Small Molecules with Specific ALDH1A1-Inhibitory Activity” (PLoS ONE, 2017)
Like-named read-outs stand apart in the source and are kept apart here.

What was measured:
ALDH3A1 = settings: reported ALDH target 3A1; read-out: Reported Biochemical IC50, ALDH3A1; cited from earlier work
ALDH1A2 = settings: reported ALDH target 1A2; read-out: Reported Biochemical IC50, ALDH1A2; cited from earlier work
ALDH1A3 = settings: reported ALDH target 1A3; read-out: Reported Biochemical IC50, ALDH1A3; cited from earlier work
LN-229 cells = experiment: 1,536-well high-content imaging ALDEFLUOR assay, LN-229; format: cell-based, human
Description: We next sought to test if the fully automated high-content assay could be used to detect ALDH1A1-specific inhibitors.
The ALDEFLUOR kit was purchased from […] Technologies (Vancouver, Canada; #01700). Cells (5 μL) were dispensed into black, optical quality (cyclic olefin copolymer) clear bottom, medium binding TC treated 1,536-well plates (Aurora Microplates, Whitefish MT) using a Multidrop Combi dispenser (ThermoFisher) and incubated overnight (37°C, 5% CO2, 85% RH). Media was subsequently removed by centrifuging plates upside down using a plate adaptor to collect media. A solution of BAAA substrate ([…] Technologies) and Hoechst 33342 (ThermoFisher, final concentrations of 500 nM and 0.5 nM, respectively) in ALDEFLUOR buffer ([…] Technologies #01700) was dispensed onto cells using a Multidrop Combi followed by immediate transfer (23 nL) of compound or control solutions using a Wako Pin-tool (final percentage of DMSO in the cell plates was 0.5%). Unless otherwise noted, all compounds were assayed as 16-point dilutions spanning a final concentration range of 1.4 nM to […]. […] Cells were incubated for 30 minutes or the indicated amount of time at 37°C, 5% CO2, 85% RH to allow the conversion of BAAA into BAA. Supernatant was subsequently removed by centrifugation as described above, then ALDEFLUOR buffer (3 μl) was dispensed by Multidrop Combi before imaging on an IN Cell 2200 (GE Healthcare).
The above assay was modified for an online robotic screening system. After cell plating and overnight incubation, 4 μL of media were removed using a 64-tip metal aspirator head on a Wako aspirator station, leaving 1 μL remaining in the well, followed by a 4 μL dispense of BAAA and Hoechst 33342 in ALDEFLUOR buffer, for a final concentration of 500 nM and 0.5 nM, respectively. Immediately following the dispense, 23 nL of compound or control solutions were transferred using a Wako Pin-tool. […] Plates were then immediately read on the IN Cell 2200 as described below.
For images captured on the IN Cell 2200 widefield automated microscope, a 10x 0.45 NA Plan Apo objective lens was used to capture the entire well of the 1,536-well plate using standard DAPI (390/18x, 432/48m) and FITC (475/28x, 525/48m) filter sets at 50 msec and 100 msec exposures, respectively. Images were subsequently analyzed using IN Cell Investigator v1.6.2 analysis software’s canned Multi-Target Analysis algorithm (GE Healthcare). […]
The same controls were also used for the calculation of the Z’ factor for each assay. The Z’ factor, a measure of assay quality control, was determined as previously described. […] All concentration–response curves were fitted as before and IC50 were calculated with the GraphPad Prism software.

COc1ccc(C(=O)CCN(C)C)cc1F [Aldi-2]
IC50 (ALDH3A1): 1900 nM

CC(C)(C)c1ccc(S(=O)(=O)/C=C/C#N)cc1 [Bay-11-7085]
IC50 (ALDH3A1): 100 nM

CCN(CC)c1ccc(C=O)cc1 [DEAB, 4-N,N-diethylaminobenzaldehyde]
IC50 (ALDH1A2): 1200 nM | IC50 (ALDH1A3): 3000 nM | IC50 (LN-229 cells; 1,000 cells/well, 500 nM substrate, 30 minutes, read-out: ALDEFLUOR IC50 LN-229): ~3480 nM

CC(C)N(C(=O)CCl)c1ccccc1 [Propachlor]
IC50 (LN-229 cells; Homo sapiens, LN-229, read-out: ALDEFLUOR IC50 LN229, retest of screen hits, 11-point dose response 0.77 nM to 45.8 μM): 16000 nM | IC50 (LN-229 cells; read-out: ALDEFLUOR IC50 LN229, retest of screen hits, 11-point dose response 0.77 nM to 45.8 μM): 16100 nM
